pKi: −log10 of the molar value. Counter-ions that a name gives are not always drawn.
Molecular target: T1, sigma-1 receptor (Cavia porcellus, UniProt Q60492)
T1 construct: Guinea pig brains were homogenized in 10 vols; (w/v) of Tris-HCl 50 mM 0.32 M sucrose; from tissue; host or cells: guinea pig brain membranes
Assay: Sigma-1 receptor radioligand binding assay with [3H]-(+)-pentazocine in guinea pig brain membranes
Conditions: radioligand [3H]-(+)-pentazocine at 5.0 nM, 150 min at 37° C., nonspecific binding with 1 μM haloperidol
Procedure: Brain membrane preparation and binding assays for the al-receptor were performed as described (DeHaven-Hudkins, D. L., L. C. Fleissner, and F. Y. Ford-Rice, 1992, Characterization of the binding of [^3H](+)pentazocine to a recognition sites in guinea pig brain, Eur. J. Pharmacol. 227, 371-378) with some modifications. Guinea pig brains were homogenized in 10 vols. (w/v) of Tris-HCl 50 mM 0.32 M sucrose, pH 7.4, with a Kinematica Polytron PT 3000 at 15000 r.p.m. for 30 s. The homogenate was centrifuged at 1000 g for 10 min at 4° C. and the supernatants collected and centrifuged again at 48000 g for 15 min at 4° C. The pellet was resuspended in 10 volumes of Tris-HCl buffer (50 mM, pH 7.4), incubated at 37° C. for 30 min, and centrifuged at 48000 g for 20 min at 4° C. Following this, the pellet was resuspended in fresh Tris-HCl buffer (50 mM, pH 7.4) and stored on ice until use.
The radioligand used was [^3H]-(+)-pentazocine at 5.0 nM and the final volume was 200 μl. The incubation was initiated with the addition of 100 μl of membrane at a final tissue concentration of approximately 5 mg tissue net weight/mL and the incubation time was 150 m. at 37° C. After incubation, the membranes were collected onto pretreated glass fiber filterplate (MultiScreen-FC, Millipore), with polyethylenimine 0.1%. The filters were washed two times with 200 μl of washing buffer (50 mM Tris Cl, pH=7.4) and then 25 μl of Ecoscint H liquid scintillation cocktail were added. Microplates were allowed to set for several hours and then quantified by liquid scintillation spectrophotometry (1450 Microbeta, Wallac). Nonspecific binding was determined with 1 μM haloperidol.

T1 sequence (Q60492 whole entry): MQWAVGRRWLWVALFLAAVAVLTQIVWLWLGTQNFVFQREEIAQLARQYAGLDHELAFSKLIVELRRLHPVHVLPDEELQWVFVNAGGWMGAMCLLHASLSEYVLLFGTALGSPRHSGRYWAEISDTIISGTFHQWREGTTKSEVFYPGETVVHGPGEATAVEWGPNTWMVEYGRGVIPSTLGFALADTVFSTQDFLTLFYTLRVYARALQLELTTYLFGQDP

| pKi | Structure (SMILES) |
| --- | --- |
| < 6.30 | c1ccc(CN2C[C@@H]3NCc4c(-c5ccccc5)nnn4[C@H]3C2)cc1 [Example 21, (5aS,8aS)-7-benzyl-3-phenyl-5,5a,6,7,8,8a-hexahydro-4H-pyrrolo[3,4-e][1,2,3]triazolo[1,5-a]pyrazine hydrochloride] |
| > 7.00 | c1ccc(CN2C[C@@H]3[C@@H](C2)NCc2c(-c4ccccc4)nnn23)cc1 [Example 22, (5aR,8aR)-7-benzyl-3-phenyl-5,5a,6,7,8,8a-hexahydro-4H-pyrrolo[3,4-e][1,2,3]triazolo[1,5-a]pyrazine hydrochloride] |
| < 6.30 | Fc1ccc(CN2C[C@@H]3NCc4c(-c5ccccc5)nnn4[C@H]3C2)cc1 [Example 23, (5aS,8aS)-7-(4-fluorobenzyl)-3-phenyl-5,5a,6,7,8,8a-hexahydro-4H-pyrrolo[3,4-e][1,2,3]triazolo[1,5-a]pyrazine hydrochloride] |
| > 7.00 | Fc1ccc(CN2C[C@@H]3[C@@H](C2)NCc2c(-c4ccccc4)nnn23)cc1 [Example 24, (5aR,8aR)-7-(4-fluorobenzyl)-3-phenyl-5,5a,6,7,8,8a-hexahydro-4H-pyrrolo[3,4-e][1,2,3]triazolo[1,5-a]pyrazine hydrochloride] |
| > 7.00 | Clc1ccc(CN2C[C@@H]3[C@@H](C2)NCc2c(-c4ccccc4)nnn23)cc1 [Example 25, (5aR,8aR)-7-(4-chlorobenzyl)-3-phenyl-5,5a,6,7,8,8a-hexahydro-4H-pyrrolo[3,4-e][1,2,3]triazolo[1,5-a]pyrazine hydrochloride] |
| 6.30 to 7.00 | FC(F)(F)c1ccc(CN2C[C@@H]3[C@@H](C2)NCc2c(-c4ccccc4)nnn23)cc1 [Example 26, (5aR,8aR)-3-phenyl-7-(4-(trifluoromethyl)benzyl)-5,5a,6,7,8,8a-hexahydro-4H-pyrrolo[3,4-e][1,2,3]triazolo[1,5-a]pyrazine hydrochloride] |
| 6.30 to 7.00 | c1ccc(-c2nnn3c2CN[C@@H]2CN(CC4CCOCC4)C[C@H]23)cc1 [Example 27, (5aR,8aR)-3-phenyl-7-((tetrahydro-2H-pyran-4-yl)methyl)-5,5a,6,7,8,8a-hexahydro-4H-pyrrolo[3,4-e][1,2,3]triazolo[1,5-a]pyrazine hydrochloride] |
| > 7.00 | Fc1ccccc1-c1nnn2c1CN[C@@H]1CN(Cc3ccccc3)C[C@H]12 [Example 29, (5aR,8aR)-7-benzyl-3-(2-fluorophenyl)-5,5a,6,7,8,8a-hexahydro-4H-pyrrolo[3,4-e][1,2,3]triazolo[1,5-a]pyrazine hydrochloride] |
| 6.30 to 7.00 | c1ccc(CN2C[C@H]3NCCc4c(-c5ccccc5)nnn4[C@H]3C2)cc1 [Example 34, (6aR,9aS)-8-benzyl-3-phenyl-4,5,6,6a,7,8,9,9a-octahydropyrrolo[3,4-b][1,2,3]triazolo[1,5-d][1,4]diazepine hydrochloride] |
| > 7.00 | c1ccc(CN2C[C@@H]3NCCc4c(-c5ccccc5)nnn4[C@@H]3C2)cc1 [Example 35, (6aS,9aR)-8-benzyl-3-phenyl-4,5,6,6a,7,8,9,9a-octahydropyrrolo[3,4-b][1,2,3]triazolo [1,5-d][1,4]-diazepine hydrochloride] |

Source: patent publication US10035805B2, “Tricyclic triazolic compounds” (LABORATORIOS DEL DR. ESTEVE S.A., priority 2014, dated 2018)
